Here are results for one compound from patent publication US11549123B2, “Plant EPSP synthases and methods of use” (PIONEER HI-BRED INTERNATIONAL, INC., priority 2015, dated 2023).

Each structure is given as a SMILES string. Positions count from the first letter of the chain named.

Holding throughout (assay type): biochemical
Test [1] deals with Zea mays EPSPS variant 123-C1 (A2R, A4W, K84R, L98C, G102A, I208L, K243E, E391P, D402G), SEQ ID NO:6 (Zea mays, UniProt O24566, A1R/A3W/D401G/E390P/G101A/I207L/K242E/K83R/L97C). In words: EPSPS substrate saturation kinetics, 123-C1. On the procedure:
EPSPS activity was determined by quantifying the phosphate generated from the EPSPS reaction. Release of inorganic phosphate was coupled to reaction with 2-amino-6-mercapto-7-methylpurine ribonucleoside, catalyzed by purine-nucleoside phosphorylase (M R Webb, Proc. Natl. Acad. Sci. 89:4884-4887, 1992). The absorbance change that occurs was monitored at 360 nm, where the extinction is 11,200 M^−1 cm^−1, with a Spectramax plate reader (Molecular Devices). To determine kinetic parameters, the varied substrate was present at seven concentrations (the eighth being the blank, containing no substrate) ranging from 4 to 400 uM and the unvaried substrate present at saturation. […] Reactions were monitored with a Spectramax plate reader. […] KI was then calculated from the following form of the Michaelis-Menten equation for competitive inhibition: KI=KM[I]/(KM app−KM) KM approximates the dissociation constant of the enzyme-substrate complex while kcat is the rate of conversion of substrate to product when the substrate concentration is saturating. kcat/KM is a widely accepted parameter for catalytic efficiency when substrate concentration is low (˜KM). […] The parameter kcat/KM×KI is used to quantify both catalytic efficiency and insensitivity and thus the overall fitness of the enzyme. […]

The target of test [2] is Zea mays EPSPS variant 278V (Zea mays, UniProt O24566, T277V). As to the kind of experiment: EPSPS reaction rate with or without 10 uM glyphosate, 278V. Also: 50 µM PEP and S3P. The note with it: pH 7; read-out: Reaction rate with 10 μM glyph, % no glyph.
Zea mays EPSPS variant 278V, sequence (O24566 entry or part of it T277V): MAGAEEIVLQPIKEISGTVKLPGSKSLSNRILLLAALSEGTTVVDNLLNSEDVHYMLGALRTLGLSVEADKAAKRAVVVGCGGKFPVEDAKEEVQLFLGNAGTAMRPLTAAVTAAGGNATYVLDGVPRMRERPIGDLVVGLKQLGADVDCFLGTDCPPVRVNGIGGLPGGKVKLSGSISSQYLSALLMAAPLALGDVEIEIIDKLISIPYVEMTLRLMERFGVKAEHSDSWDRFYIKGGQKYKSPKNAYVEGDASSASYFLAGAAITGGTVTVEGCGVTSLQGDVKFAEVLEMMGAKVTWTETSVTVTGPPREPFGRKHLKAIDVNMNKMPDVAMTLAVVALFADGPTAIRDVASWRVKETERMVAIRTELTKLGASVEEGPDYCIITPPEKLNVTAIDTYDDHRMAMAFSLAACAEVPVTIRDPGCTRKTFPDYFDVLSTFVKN
Test [3] has as its target T1, Zea mays EPSPS variant Zm-H6 (868-H6) with A76V (H6-A76V) (Zea mays, UniProt O24566, A1R/A3W/A415G/A71Q/A75V/D401G/E301S/E390G/G101A/I207L/K83R/L97C/T278A/T360S/T440Q/V437R).
T1 sequence (O24566 with tags, fused parts or gaps A1R/A3W/A71Q/A75V/K83R/L97C/G101A/I207L/T278A/E301S/T360S/E390G/D401G/A415G/V437R/T440Q): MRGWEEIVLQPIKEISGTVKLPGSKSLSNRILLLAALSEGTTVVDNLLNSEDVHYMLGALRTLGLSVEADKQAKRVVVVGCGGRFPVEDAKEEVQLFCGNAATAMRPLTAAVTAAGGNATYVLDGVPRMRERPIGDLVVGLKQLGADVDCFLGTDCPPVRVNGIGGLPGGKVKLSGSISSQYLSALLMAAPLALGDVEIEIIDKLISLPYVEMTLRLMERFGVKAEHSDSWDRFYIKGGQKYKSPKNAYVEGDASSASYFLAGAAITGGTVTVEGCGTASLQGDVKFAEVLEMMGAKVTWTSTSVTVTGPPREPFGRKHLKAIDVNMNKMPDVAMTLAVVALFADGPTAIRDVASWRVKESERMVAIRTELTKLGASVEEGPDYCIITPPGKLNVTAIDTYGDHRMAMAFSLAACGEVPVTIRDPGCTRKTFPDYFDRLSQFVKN
In words: Substrate saturation kinetic analysis with glyphosate, H6-A76V.

For test [4], the target named is T2, Zea mays EPSPS variant Zm-H6 (868-H6) with A69V (H6-A69V) (Zea mays, UniProt O24566, A1R/A3W/A415G/A68V/A71Q/D401G/E301S/E390G/G101A/I207L/K83R/L97C/T278A/T360S/T440Q/V437R).
T2 sequence (O24566 with tags, fused parts or gaps A1R/A3W/A68V/A71Q/K83R/L97C/G101A/I207L/T278A/E301S/T360S/E390G/D401G/A415G/V437R/T440Q): T1 sequence (O24566 with tags, fused parts or gaps A1R/A3W/A71Q/A75V/K83R/L97C/G101A/I207L/T278A/E301S/T360S/E390G/D401G/A415G/V437R/T440Q) with A69V, V76A
In words: Substrate saturation kinetic analysis with glyphosate, H6-A69V.

Zea mays EPSPS variant 123-C1 (A2R, A4W, K84R, L98C, G102A, I208L, K243E, E391P, D402G), SEQ ID NO:6, sequence (O24566 entry or part of it A1R/A3W/K83R/L97C/G101A/I207L/K242E/E390P/D401G): as the sequence (O24566 entry or part of it T277V) above, with A2R, A4W, K84R, L98C, G102A, I208L, K243E, V278T, E391P, D402G counted along it

Regarding `O=C(O)CNCP(=O)(O)O` [glyphosate, N-phosphonomethylglycine], the Ki worked out at 559 µM in test [1], 538 µM in test [3] and 320 µM in test [4]. Further, the “(kcat/KM)*KI” value in test [1] (PEP as substrate, glyphosate as inhibitor) came out at 10100; in test [3] (substrate saturation, H6-A76V), 2490; in test [4] (substrate saturation, H6-A69V), 2440. In addition, the activity at 10 µM in test [2] worked out at 3.25%.
